Blank lines part the entries; values can stand above or below the compound they belong to.
Assays:
[1] = test system: green peach aphid (Myzus persicae); test: Myzus test (spray treatment), Example D; format: in vivo; conditions: Table D
Description: Myzus Test (Spray Treatment)
(§1) To produce a suitable preparation of active compound, 1 part by weight of active compound is mixed with the stated amounts of solvents and emulsifier, and the concentrate is diluted with emulsifier-containing water to the desired concentration.
Discs of Chinese cabbage (Brassica pekinensi), which are infested by all stages of the green peach aphid (Myzus persicae) are sprayed with a preparation of active compound of the desired concentration.
After the desired period of time, the activity in % is determined 100% means that all aphids have been killed; 0% means that none of the aphids have been killed.

[2] = test system: caterpillars of the army worm (Spodoptera frugiperda); test: Spodoptera frugiperda test (spray treatment), Example F; format: in vivo; conditions: maize leaf discs, 500 g/ha
Description: (§2) Spodoptera frugiperda Test (Spray Treatment) [table] To produce a suitable preparation of active compound, 1 part by weight of active compound is mixed with the stated amounts of solvents and emulsifier, and the concentrate is diluted with emulsifier-containing water to the desired concentration. Discs of maize leaves (Zea mays) are sprayed with a preparation of active compound of the desired concentration and, after they have dried, populated with caterpillars of the army worm (Spodoptera frugiperda). After the desired period of time, the activity in % is determined 100% means that all caterpillars have been killed; 0% means that none of the caterpillars have been killed.

[3] = test system: monocotyledonous and dicotyledonous weed and crop plants; test: Herbicidal post-emergence action, Example J; format: in vivo; conditions: Greenhouse, 320 g a.i./ha, about 3 weeks
Description: Herbicidal Post-Emergence Action Seeds of monocotyledonous and dicotyledonous weed and crop plants are placed into sandy loam in woodfibre pots, covered with soil and cultivated in a greenhouse under good growth conditions. 2-3 weeks after sowing, the test plants are treated at the one-leaf stage. The test compounds formulated as wettable powders (WP) are, in various dosages with a water application rate of 600 l/ha (converted), with 0.2% of wetting agent added, sprayed onto the green parts of the plants. After the test plants have been kept in the greenhouse under optimum growth conditions for about 3 weeks, the effect of the preparations is rated visually in comparison to untreated controls (herbicidal effect in percent (%): 100% effect=plants have died, 0% effect=like control plants).

[4] = test system: caterpillars of the army worm (Spodoptera frugiperda); test: Spodoptera frugiperda test (spray treatment), Example B; format: in vivo; conditions: Table B, 500 g/ha active compound
Description: as §2

[5] = test system: larvae of the mustard beetle (Phaedon cochleariae); test: Phaedon test (spray treatment), Example E; format: in vivo; conditions: Table E
Description: as §2, with “Phaedon Test” for “Spodoptera frugiperda Test”, “of Chinese cabbage (Brassica pekinensis)” for “of maize leaves (Zea mays)”, “with larvae” for “with caterpillars”, “the mustard beetle (Phaedon cochleariae).” for “the army worm (Spodoptera frugiperda).”, “all beetle larvae” for “all caterpillars”, “the beetle larvae” for “the caterpillars”

[6] = test system: greenhouse red spider mite (Tetranychus urticae); test: Tetranychus test (OP-resistant/spray treatment), Example G; format: in vivo; conditions: Tetranychus urticae (OP-resistant), bean leaf discs, spray treatment, 500 g/ha
Description: Tetranychus Test (OP-Resistant/Spray Treatment)
as §1
Discs of bean leaves (Phaseolus vulgaris) which are infested by all stages of the greenhouse red spider mite (Tetranychus urticae) are sprayed with a preparation of active compound of the desired concentration.
After the desired period of time, the activity in % is determined 100% means that all spider mites have been killed; 0% means that none of the spider mites have been killed.

Meloidogyne incognita = test: Meloidogyne test, Example C; format: in vivo; conditions: Table C, 20 ppm active compound, nematicidal effect by formation of galls
Description: Meloidogyne Test [table] To produce a suitable preparation of active compound, 1 part by weight of active compound is mixed with the stated amounts of solvent, and the concentrate is diluted with water to the desired concentration. Containers are filled with sand, solution of active compound, Meloidogyne incognita egg/larvae suspension and lettuce seeds. The lettuce seeds germinate and the plants develop. On the roots, galls are formed. After the desired period of time, the nematicidal effect is determined in % by the formation of galls. 100% means that no galls have been found; 0% means that the number of galls on the treated plants corresponds to that of the untreated control.

Sphaerotheca fuliginea = test: Sphaerotheca test (cucumber)/protective, Example H; format: in vivo; conditions: Sphaerotheca fuliginea on cucumber, protective, application rate 750 g/ha, evaluation 7 days after inoculation
Description: Sphaerotheca Test (Cucumber)/Protective [table] To produce a suitable preparation of active compound, 1 part by weight of active compound is mixed with the stated amounts of solvent and emulsifier, and the concentrate is diluted with water to the desired concentration. To test for protective activity, young cucumber plants are sprayed with the preparation of active compound at the stated application rate. 1 day after the treatment, the plants are inoculated with a spore suspension of Sphaerotheca fuliginea. The plants are then placed in a greenhouse at 70% relative atmospheric humidity and a temperature of 23° C. Evaluation is carried out 7 days after the inoculation. 0% means an efficacy which corresponds to that of the control, whereas an efficacy of 100% means that no infection is observed.

[7] = test system: larvae of the mustard beetle (Phaedon cochleariae); test: Phaedon test (spray treatment), Example A; format: in vivo; conditions: Table A, 500 g/ha active compound
Description: as §2, with “Phaedon Test” for “Spodoptera frugiperda Test”, “of Chinese cabbage (Brassica pekinensis)” for “of maize leaves (Zea mays)”, “with larvae” for “with caterpillars”, “the mustard beetle (Phaedon cochleariae).” for “the army worm (Spodoptera frugiperda).”, “all beetle larvae” for “all caterpillars”, “the beetle larvae” for “the caterpillars”

SMILES: COc1ccccc1-c1ccc(C)c(-c2c(OC(=O)C(C)(C)C)n3n(c2=O)CCOCC3)c1 [Ex. I-2-b-21]
Kill rate in % after 5d ([1]; 500 g/ha active compound): 100%

SMILES: Cc1ccc(-c2ccc(F)cc2F)cc1-c1c(OC(=O)C(C)(C)C)n2n(c1=O)CCOCC2 [Ex. I-2-b-15]
Kill rate in % after 5d ([1]; 500 g/ha active compound): 100%
Kill rate in % after 7d [2]: 100%

SMILES: COc1cccc(-c2ccc(C)c(-c3c(O)n4n(c3=O)CCCC4)c2)c1 [Example I-1-a-22]
herbicidal effect in percent, Amaranthus ([3]; Amaranthus): 70%
herbicidal effect in percent, Lolium [3]: 100%
herbicidal effect in percent, Setaria [3]: 90%

SMILES: Cc1ccc(-c2ccc(Cl)cc2)cc1-c1c(OC(=O)C(C)(C)C)n2n(c1=O)CCCC2 [Ex. I-1-b-4]
Kill rate in % after 7d [4]: 100%
Kill rate in % after 7d ([5]; 500 g/ha active compound): 100%
Kill rate in % after 5d [6]: 100%

SMILES: Cc1ccc(-c2cccc([N+](=O)[O-])c2)cc1-c1c(OC(=O)C(C)(C)C)n2n(c1=O)CCCC2 [Ex. I-1-b-26]
Kill rate in % after 5d ([1]; 500 g/ha active compound): 100%

SMILES: Cc1ccc(-c2ccc(F)c(Cl)c2)cc1-c1c(OC(=O)C(C)(C)C)n2n(c1=O)CCCC2 [Ex. I-1-b-17]
Kill rate in % after 5d ([1]; 500 g/ha active compound): 90%
Kill rate in % after 7d [2]: 100%

melting point: 172 °C
SMILES: Cc1ccc(-c2ccc(F)cc2)cc1-c1c(O)n2n(c1=O)CCCC2 [Example I-1-a-1]
Effect in % after 14d (Meloidogyne incognita): 80%

SMILES: Cc1ccc(-c2ccc(F)cc2)cc1-c1c(OC(=O)C(C)(C)C)n2n(c1=O)CCCC2 [Example I-1-b-1]
Effect in % after 14d (Meloidogyne incognita): 90%
Kill rate in % after 7d ([5]; 500 g/ha active compound): 100%
Efficacy in % (Sphaerotheca fuliginea): 94%

SMILES: Cc1ccc(-c2ccc(Cl)c(Cl)c2)cc1-c1c(OC(=O)C(C)(C)C)n2n(c1=O)CCOCC2 [Ex. I-2-b-13]
Kill rate in % after 5d ([1]; 500 g/ha active compound): 100%

SMILES: CCOC(=O)Oc1c(-c2cc(-c3ccc(Cl)cc3)ccc2C)c(=O)n2n1CCCC2 [Ex. I-1-c-4]
Kill rate in % after 7d [4]: 100%

SMILES: Cc1ccc(-c2cc(Cl)ccc2Cl)cc1-c1c(O)n2n(c1=O)CCCC2 [Example I-1-a-12]
herbicidal effect in percent, Avena fatua [3]: 80%
herbicidal effect in percent, Lolium [3]: 70%
herbicidal effect in percent, Setaria [3]: 70%

SMILES: Cc1ccc(-c2ccc(Cl)cc2)cc1-c1c(OC(=O)C(C)C)n2n(c1=O)CCOCC2 [Ex. I-2-b-31]
Kill rate in % after 5d ([1]; 500 g/ha active compound): 100%

SMILES: Cc1ccc(-c2ccc(C(C)C)cc2)cc1-c1c(OC(=O)C(C)(C)C)n2n(c1=O)CCCC2 [Ex. I-1-b-30]
Kill rate in % after 5d ([1]; 500 g/ha active compound): 100%

SMILES: Cc1ccc(-c2ccc(C(F)(F)F)cc2)cc1-c1c(OC(=O)C(C)(C)C)n2n(c1=O)CCCC2 [Ex. I-1-b-20]
herbicidal effect in percent, Avena fatua [3]: 80%
herbicidal effect in percent, Lolium [3]: 80%
herbicidal effect in percent, Setaria [3]: 90%

SMILES: Cc1ccc(-c2cc(Cl)cc(Cl)c2)cc1-c1c(OC(=O)C(C)(C)C)n2n(c1=O)CCCC2 [Ex. I-1-b-14]
Kill rate in % after 5d ([1]; 500 g/ha active compound): 100%

SMILES: CCOC(=O)Oc1c(-c2cc(-c3ccc(F)c(Cl)c3)ccc2C)c(=O)n2n1CCCC2 [Ex. I-1-c-17]
Kill rate in % after 7d [2]: 83%
Kill rate in % after 5d [6]: 100%

SMILES: CCOC(=O)Oc1c(-c2cc(-c3ccc(C(F)(F)F)cc3)ccc2C)c(=O)n2n1CCCC2 [Ex. I-1-c-19]
herbicidal effect in percent, Avena fatua [3]: 70%
herbicidal effect in percent, Lolium [3]: 80%
herbicidal effect in percent, Setaria [3]: 100%

SMILES: CCOC(=O)Oc1c(-c2cc(-c3ccc(F)cc3F)ccc2C)c(=O)n2n1CCCC2 [Ex. I-1-c-15]
Kill rate in % after 5d ([1]; 500 g/ha active compound): 100%
Kill rate in % after 7d ([5]; 500 g/ha active compound): 100%
Kill rate in % after 5d [6]: 100%

SMILES: Cc1cc(C)c(-c2c(O)n3n(c2=O)CCOCC3)c(C)c1-c1ccc(F)cc1 [Example I-2-a-32]
Kill rate in % after 5d ([1]; 500 g/ha active compound): 90%

SMILES: Cc1ccc(-c2ccc(F)cc2)cc1-c1c(OC(=O)C2CC2)n2n(c1=O)CCCC2 [Ex. I-1-b-33]
Kill rate in % after 5d ([1]; 100 g/ha active compound): 100%

SMILES: Cc1ccc(-c2ccc(C(C)C)cc2)cc1-c1c(OC(=O)C(C)(C)C)n2n(c1=O)CCOCC2 [Ex. I-2-b-30]
Kill rate in % after 5d ([1]; 500 g/ha active compound): 100%

SMILES: Cc1ccc(-c2ccc(Cl)cc2Cl)cc1-c1c(OC(=O)C(C)(C)C)n2n(c1=O)CCCC2 [Ex. I-1-b-11]
Kill rate in % after 5d ([1]; 500 g/ha active compound): 100%
Kill rate in % after 7d [2]: 100%

SMILES: Cc1ccc(-c2ccc(Cl)cc2)cc1-c1c(O)n2n(c1=O)CCCC2 [Example I-1-a-4]
Kill rate in % after 7d [7]: 100%

SMILES: CCOC(=O)Oc1c(-c2cc(-c3ccc(F)cc3)ccc2C)c(=O)n2n1CCCC2 [Example I-1-c-1]
Kill rate in % after 5d ([1]; 100 g/ha active compound): 100%
Kill rate in % after 7d ([5]; 100 g/ha active compound): 100%
Efficacy in % (Sphaerotheca fuliginea): 80%
herbicidal effect in percent, Avena fatua [3]: 90%
herbicidal effect in percent, Lolium [3]: 90%
herbicidal effect in percent, Setaria [3]: 80%

SMILES: CCOC(=O)Oc1c(-c2cc(-c3cc(F)ccc3F)ccc2C)c(=O)n2n1CCOCC2 [Ex. I-2-c-16]
Kill rate in % after 5d ([1]; 500 g/ha active compound): 100%

SMILES: Cc1ccc(-c2cccc(Cl)c2)cc1-c1c(OC(=O)C(C)(C)C)n2n(c1=O)CCCC2 [Ex. I-1-b-3]
Efficacy in % (Sphaerotheca fuliginea): 90%

SMILES: CCOC(=O)Oc1c(-c2cc(-c3ccc(F)cc3)ccc2C)c(=O)n2n1CCOCC2 [Ex. I-2-c-6]
Effect in % after 14d (Meloidogyne incognita): 90%
Kill rate in % after 5d ([1]; 100 g/ha active compound): 100%
